Assays:
Type in all cases: functional
Athalia rosae ruficornis [1] = test: Pharmacophagous feeding stimulant activity in Athalia rosae ruficornis assessed as insect fed on paper for more than 10 seconds at 10^-6 g/filter paper
Athalia rosae ruficornis [2] = test: Pharmacophagous feeding stimulant activity in Athalia rosae ruficornis assessed as insect fed on paper for more than 10 seconds at 10^-5 g/filter paper
Athalia rosae ruficornis [3] = test: Pharmacophagous feeding stimulant activity in Athalia rosae ruficornis assessed as insect fed on paper for more than 10 seconds at 10^-8 g/filter paper
Athalia rosae ruficornis [4] = test: Pharmacophagous feeding stimulant activity in Athalia rosae ruficornis assessed as insect fed on paper for more than 10 seconds at 10^-7 g/filter paper

| SMILES | Activity (Athalia rosae ruficornis [1]) [%] | Activity (Athalia rosae ruficornis [2]) [%] | Activity (Athalia rosae ruficornis [3]) [%] | Activity (Athalia rosae ruficornis [4]) [%] |
| --- | --- | --- | --- | --- |
| CC(=O)OC[C@@]12[C@@H](OC(C)=O)C[C@@H](C)[C@](C)([C@@H]3C[C@H]4C=CO[C@H]4O3)[C@H]1CC[C@H](OC(C)=O)[C@]21CO1 [3-EPICARYOPTIN] | 80 | 80 | 80 | 80 |
| CC(=O)OC[C@@]12[C@@H](OC(C)=O)C[C@@H](C)[C@](C)([C@@H]3C[C@H]4C=CO[C@H]4O3)[C@H]1C[C@@H](O)[C@H](OC(=O)C(C)C)[C@]21CO1 [AJUGACHIN A] | 80 | 80 | 80 | 80 |
| C/C=C(\C)C(=O)O[C@@H]1CC[C@]2(CO2)[C@]2(COC(C)=O)[C@@H](OC(C)=O)C[C@@H](C)[C@](C)(C[C@H](O)C3=CC(=O)OC3)[C@@H]12 [AJUGAMARIN A1] | <10 | <10 | <10 | <10 |
| C/C=C(\C)C(=O)O[C@@H]1CC[C@]2(CO2)[C@]2(COC(C)=O)[C@@H](OC(C)=O)C[C@@H](C)[C@](C)(C[C@H](OC(=O)[C@@H](C)CC)C3=CC(=O)OC3)[C@@H]12 [AJUGAMARIN G1] | <10 | <10 | <10 | <10 |
| C/C=C(\C)C(=O)O[C@@H](C[C@@]1(C)[C@H](C)C[C@H](OC(C)=O)[C@]2(COC(C)=O)[C@@H]1[C@H](OC(=O)[C@@H](C)CC)CC[C@]21CO1)C1=CC(=O)OC1 [AJUGAMARIN H1] | <10 | <10 | <10 | <10 |
| CC[C@H](C)C(=O)O[C@H]1CC(=O)[C@@H]2[C@@](C)(CCC3=CC(=O)OC3)[C@H](C)C[C@H](OC(C)=O)[C@@]2(COC(C)=O)[C@@]12CO2 [AJUGAREPTANSONE A] | <10 | 10 | <10 | <10 |
| C/C=C(\C)C(=O)O[C@@H](C[C@@]1(C)[C@H](C)C[C@H](OC(C)=O)[C@]2(COC(C)=O)[C@@H]1[C@H](OC(=O)/C(C)=C/C)CC[C@]21CO1)C1=CC(=O)OC1 [AJUGATAKASIN A] | <10 | <10 | <10 | <10 |
| CC[C@H](C)C(=O)O[C@@H](C[C@@]1(C)[C@H](C)C[C@H](OC(C)=O)[C@]2(COC(C)=O)[C@@H]1[C@H](OC(=O)[C@@H](C)CC)CC[C@]21CO1)C1=CC(=O)OC1 [AJUGATAKASIN B] | <10 | <10 | <10 | <10 |
| CC[C@H](C)C(=O)O[C@@H](C[C@@]1(C)[C@H](C)C[C@H](OC(C)=O)[C@]2(COC(C)=O)[C@@H]1CC[C@H](O)[C@]21CO1)C1=CC(=O)OC1 [AJUGATANSIN B1] | <10 | <10 | <10 | <10 |
| CC(=O)OC[C@@]12[C@@H](OC(C)=O)C[C@@H](C)[C@](C)([C@@H]3C[C@H]4C=CO[C@H]4O3)[C@H]1C[C@@H](O)[C@H](O)[C@]21CO1 [ATHALIADIOL] | 80 | 80 | 40 | 40 |
| CC[C@H](C)C(=O)O[C@@H](C[C@@]1(C)[C@H](C)C[C@H](OC(C)=O)[C@]2(COC(C)=O)[C@@H]1C(=O)C[C@H](O)[C@]21CO1)C1=CC(=O)OC1 [Ajugareptone] | <10 | <10 | <10 | <10 |
| CC[C@@](C)(OC(C)=O)C(=O)O[C@H]1[C@H](O)C[C@@H]2[C@@](C)([C@@H]3C[C@H]4C=CO[C@H]4O3)C(C)=C[C@H](OC(C)=O)[C@@]2(COC(C)=O)[C@@]12CO2 [CLERODENDRIN A] | 40 | 40 | <10 | <10 |
| CC[C@@](C)(OC(C)=O)C(=O)O[C@H]1[C@H](O)C[C@@H]2[C@@](C)([C@@H]3C[C@H]4C=CO[C@H]4O3)[C@H](C)C[C@H](OC(C)=O)[C@@]2(COC(C)=O)[C@@]12CO2 [CLERODENDRIN B] | 80 | 80 | 40 | 80 |
| CC[C@H](C)C(=O)O[C@H]1[C@H](O)C[C@@H]2[C@@](C)([C@@H]3C[C@H]4C=CO[C@H]4O3)[C@H](C)C[C@H](OC(C)=O)[C@@]2(COC(C)=O)[C@@]12CO2 [CLERODENDRIN D] | 80 | 80 | 80 | 80 |
| CC(=O)OC[C@@]12[C@@H](OC(C)=O)C=C(C)[C@](C)([C@@H]3C[C@H]4C=CO[C@H]4O3)[C@H]1C[C@@H](O)[C@H](OC(=O)C(C)(C)OC(C)=O)[C@]21CO1 [CLERODENDRIN E] | 10 | 10 | <10 | <10 |
| CC(=O)OC[C@@]12[C@@H](OC(C)=O)C=C(C)[C@](C)([C@@H]3C[C@H]4C=CO[C@H]4O3)[C@H]1C[C@@H](O)[C@H](OC(=O)[C@](C)(OC(C)=O)[C@@H](C)OC(C)=O)[C@]21CO1 [CLERODENDRIN F] | 10 | 10 | <10 | <10 |
| CCC(C)C(=O)O[C@H]1[C@H](O)C[C@@H]2[C@@](C)([C@@H]3C[C@H]4C=CO[C@H]4O3)C(C)=C[C@H](OC(C)=O)[C@@]2(COC(C)=O)[C@@]12CO2 (some centres undefined) [CLERODENDRIN G] | 40 | 40 | <10 | <10 |
| CC(=O)OC[C@@]12[C@@H](OC(C)=O)C[C@@H](C)[C@](C)([C@@H]3C[C@H]4C=CO[C@H]4O3)[C@H]1C[C@@H](O)[C@H](OC(=O)[C@](C)(OC(C)=O)[C@@H](C)OC(C)=O)[C@]21CO1 [CLERODENDRIN H] | 80 | 80 | 80 | 80 |
| CC(=O)OC[C@@]12[C@@H](OC(C)=O)C=C(C)[C@](C)([C@@H]3C[C@H]4C=CO[C@H]4O3)[C@H]1C[C@@H](O)[C@H](OC(=O)[C@](C)(OC(C)=O)[C@H](C)OC(C)=O)[C@]21CO1 [CLERODENDRIN I] | 10 | 10 | <10 | <10 |
| CC(=O)OC[C@@]12[C@@H](OC(C)=O)C[C@@H](C)[C@](C)([C@@H]3C[C@H]4C=CO[C@H]4O3)[C@H]1CCC[C@]21CO1 [CLERODIN] | 80 | 80 | 40 | 80 |
| CCC(C)C(=O)O[C@@H]1CC[C@]2(CO2)[C@]2(COC(C)=O)[C@@H](OC(C)=O)C[C@@H](C)[C@](C)(C[C@H](O)C3=CC(=O)OC3)[C@@H]12 (some centres undefined) [DIHYDROAJUGAMARIN] | <10 | <10 | <10 | <10 |

— ChEMBL document CHEMBL3044742, “Pharmacophagous feeding stimulant activity of neo-clerodane diterpenoids for the turnip sawfly, Athalia rosae ruficornis” (2004)
